Assays:
[1] = test system: methicillin resistant S. aureus Mu50 strain (S. aureus ATCC700699) biofilm; assay: Biofilm susceptibility to vancomycin, pre-treatment regimen (biofilm formed in presence of compound, then vancomycin); assay type: cell-based; conditions: for Pretreat (100 μM): percentage Colony Forming Units (CFU's) per biofilm: compound 100 μM during biofilm formation; for Pretreat (100 μM): percentage Colony Forming Units (CFU's) per biofilm / Pretreat. (25 μM): percentage Colony Forming Units (CFU's) per biofilm: then VAN 20 μg/ml, compared to the untreated (negative) control; for EC50: concentration needed to get 50% killing compared to antibiotic alone (VAN 20 μg/ml) and complete killing, read-out: Pretreat. (EC50); for Pretreat. (25 μM): percentage Colony Forming Units (CFU's) per biofilm: compound 25 μM during biofilm formation
Method in brief: (§1)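 Mu50 biofilms from 10^8 CFU/ml inoculum (4 h adhesion, then 20 h, 37 °C). Pre-treatment: compound (0.1-250 μM) present during biofilm formation, then vancomycin 20 μg/ml alone 24 h; combination: mature biofilm given vancomycin 20 μg/ml plus compound 24 h. Survivors counted by plating versus vancomycin alone.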

[2] = test system: methicillin resistant S. aureus Mu50 strain (S. aureus ATCC700699) biofilm; assay: Biofilm susceptibility to vancomycin, combination treatment regimen (mature biofilm treated with compound plus vancomycin); assay type: cell-based; conditions: for Combin. (100 μM): percentage Colony Forming Units (CFU's) per biofilm: compound 100 μM together with VAN 20 μg/ml on mature biofilm; for Combin. (100 μM): percentage Colony Forming Units (CFU's) per biofilm / Combin. (25 μM): percentage Colony Forming Units (CFU's) per biofilm: compared to the untreated (negative) control; for EC50: concentration needed to get 50% killing compared to antibiotic alone (VAN 20 μg/ml) and complete killing, read-out: Combin. (EC50); for Combin. (25 μM): percentage Colony Forming Units (CFU's) per biofilm: compound 25 μM together with VAN 20 μg/ml on mature biofilm
Method in brief: as §1

Row | SMILES | Pretreat (100 μM): percentage Colony Forming Units (CFU's) per biofilm [1] [percentage] | Combin. (100 μM): percentage Colony Forming Units (CFU's) per biofilm [2] [percentage] | EC50 [1] [µM] | EC50 [2] [µM] | Pretreat. (25 μM): percentage Colony Forming Units (CFU's) per biofilm [1] [percentage] | Combin. (25 μM): percentage Colony Forming Units (CFU's) per biofilm [2] [percentage]
1 | O=C(NC[C@]1(O)CO[C@H](CNC(=O)c2ccccc2C(F)(F)F)[C@H]1O)c1ccccc1 [compound 175, N-(((2R,3R,4S)-4-(benzamidomethyl)-3,4-dihydroxytetrahydrofuran-2-yl)methyl)-2-(trifluoromethyl)benzamide] | 22.48 | 34.85 | – | – | – | –
2 | O=C(NC[C@]1(O)CO[C@H](CN2C(=O)c3ccccc3C2=O)[C@H]1O)c1ccccc1 [compound 173, N-(((3S,4R,5R)-5-((1,3-dioxoisoindolin-2-yl)methyl)-3,4-dihydroxytetrahydrofuran-3-yl)methyl)benzamide] | 11.18 | 8.805 | 5.01 | 8.3 | – | –
3 | O=C(NC[C@]1(O)CO[C@H](CNS(=O)(=O)C(F)(F)F)[C@H]1O)c1ccccc1 [compound 214, N-(((3S,4R,5R)-3,4-dihydroxy-5-(((trifluoromethyl)sulfonamido)methyl)tetrahydrofuran-3-yl)methyl)benzamide] | 29.28 | 42.85 | – | – | – | –
4 | N#Cc1ccc(C(=O)NC[C@]2(O)CO[C@H](CNC(=O)c3ccccc3Cl)[C@H]2O)cc1 [compound 236, 2-chloro-N-(((2R,3R,4S)-4-((4-cyanobenzamido)methyl)-3,4-dihydroxytetrahydrofuran-2-yl)methyl)benzamide] | – | – | – | – | 73.00 | 70.73
5 | O=C(NC[C@]1(O)CO[C@H](CNC(=O)c2ccc(Cl)cc2Cl)[C@H]1O)c1ccccc1 [compound 193, N-(((2R,3R,4S)-4-(benzamidomethyl)-3,4-dihydroxytetrahydrofuran-2-yl)methyl)-2,4-dichlorobenzamide] | 10.80 | 11.25 | 11.4 | 11.7 | – | –
6 | O=C(NC[C@H]1OC[C@@](O)(CNC(=O)c2ccccc2)[C@@H]1O)c1ccc(Cl)nc1 [compound 202, N-(((2R,3R,4S)-4-(benzamidomethyl)-3,4-dihydroxytetrahydrofuran-2-yl)methyl)-6-chloronicotinamide] | 14.00 | 18.24 | – | – | – | –
7 | Cn1cncc1C(=O)NC[C@H]1OC[C@@](O)(CNC(=O)c2ccccc2)[C@@H]1O [compound 210, N-(((2R,3R,4S)-4-(benzamidomethyl)-3,4-dihydroxytetrahydrofuran-2-yl)methyl)-1-methyl-1H-imidazole-5-carboxamide] | 22.10 | 26.95 | 52.3 | 58.2 | – | –
8 | O=C(NC[C@H]1OC(O)[C@@](O)(CNC(=O)c2ccccc2)[C@@H]1O)c1ccccc1 (stereo partly drawn) [compound 21, N,N′-(((2R,3R,4R)-3,4,5-trihydroxytetrahydrofuran-2,4-diyl)bis(methylene))dibenzamide] | 18.04 | 56.02 | 73.6 | 154 | – | –
9 | O=C(NC[C@]1(O)CO[C@H](CNC(=O)c2ccccc2F)[C@H]1O)c1ccccc1 [compound 170, N-(((2R,3R,4S)-4-(benzamidomethyl)-3,4-dihydroxytetrahydrofuran-2-yl)methyl)-2-fluorobenzamide] | 11.84 | 16.30 | – | – | – | –
10 | O=C(NC[C@]1(O)CO[C@H](CNC(=O)c2ccccc2Cl)[C@H]1O)c1ccc(F)cc1 [compound 233, 2-chloro-N-(((2R,3R,4S)-4-((4-fluorobenzamido)methyl)-3,4-dihydroxytetrahydrofuran-2-yl)methyl)benzamide] | – | – | – | – | 88.61 | 91.63
11 | Cn1c(C(=O)NC[C@H]2OC[C@@](O)(CNC(=O)c3ccccc3)[C@@H]2O)cc2ccccc21 [compound 186, N-(((2R,3R,4S)-4-(benzamidomethyl)-3,4-dihydroxytetrahydrofuran-2-yl)methyl)-1-methyl-1H-indole-2-carboxamide] | 41.45 | 42.75 | – | – | – | –
12 | N#Cc1ccc(C(=O)NC[C@H]2OC[C@@](O)(CNC(=O)c3ccccc3)[C@@H]2O)cc1 [compound 155, N-(((2R,3R,4S)-4-(benzamidomethyl)-3,4-dihydroxytetrahydrofuran-2-yl)methyl)-4-cyanobenzamide] | 15.57 | 16.06 | – | – | – | –
13 | O=C(NC[C@H]1OC[C@@](O)(CNC(=O)c2ccccc2)[C@@H]1O)c1ccc2ccccc2c1 [compound 185, N-(((2R,3R,4S)-4-(benzamidomethyl)-3,4-dihydroxytetrahydrofuran-2-yl)methyl)-2-naphthamide] | 22.11 | 36.32 | – | – | – | –
14 | O=C(NC[C@H]1OC[C@@](O)(CNC(=O)c2ccc(-c3ccccc3)cc2)[C@@H]1O)c1ccnnc1 [compound 253, N-(((2R,3R,4S)-4-([1,1′-biphenyl]-4-carboxamidomethyl)-3,4-dihydroxytetrahydrofuran-2-yl)methyl)pyridazine-4-carboxamide] | 4.25 | 22.50 | 8.54 | 45.4 | – | –
15 | O=C(NC[C@]1(O)CO[C@H](CNS(=O)(=O)c2ccccc2-c2ccccc2)[C@H]1O)c1ccccc1 [compound 220, N-(((3S,4R,5R)-5-(([1,1′-biphenyl]-2-sulfonamido)methyl)-3,4-dihydroxytetrahydrofuran-3-yl)methyl)benzamide] | 25.63 | 29.85 | – | – | – | –
16 | O=C(NC[C@]1(O)CO[C@H](Cn2nncc2-c2ccccc2)[C@H]1O)c1ccccc1 [compound 222, N-(((3S,4R,5R)-3,4-dihydroxy-5-((5-phenyl-1H-1,2,3-triazol-1-yl)methyl)tetrahydrofuran-3-yl)methyl)benzamide] | 47.10 | 73.90 | – | – | – | –
